We go through 42 compounds from patent publication US20230026611A1, “ARYL HETEROCYCLIC COMPOUNDS AS Kv1.3 POTASSIUM SHAKER CHANNEL BLOCKERS” (D. E. Shaw Research, LLC, priority 2019, published 2023).

pIC50: −log10 of the molar value. Like-named read-outs stand apart in the source and are kept apart here.

One test concerns the target T1, Kv1.3 potassium channel (Homo sapiens, UniProt P22001).
T1 construct: expressed in transfected cells
Briefly: Kv1.3 potassium channel blocker activity, automated whole-cell patch clamp (Patchliner) in CHO-K1 cells stably expressing Kv1.3. In kind it is cell-based. As for the experimental part: Example 82. Evaluation of Kv1.3 potassium channel blocker activities
This assay is used to evaluate the disclosed compounds' activities as Kv1.3 potassium channel blockers.
CHO-K1 cells stably expressing Kv1.3 were grown in DMEM containing 10% heat-inactivated FBS, 1 mM sodium pyruvate, 2 mM L-glutamine, and G418 (500 μg/ml).
All compounds were dissolved in DMSO at 30 mM.
The currents were evoked by applying 100 ms depolarizing pulses from −90 mV (holding potential) to +40 mV were applied with 0.1 Hz frequency. […] 10-second breaks were used between pulse trains (see Table A below).
Data were sampled at 10 kHz without filtering. Passive leak currents were subtracted online using a P/4 procedure (HEKA Elektronik Dr. Schulze GmbH). […] Total compound incubation time before the next pulse train was not longer than 10 seconds. Peak current inhibition was observed during compound equilibration.

The target of a further test is hERG channel (Homo sapiens, UniProt Q12809). As to the kind of experiment: hERG electrophysiology, automated whole-cell patch clamp (Patchliner) in CHO-K1 cells stably expressing hERG. In general terms: The hERG channel carries a current that helps repolarise heart muscle cells.
Sequence of hERG channel (Q12809 whole entry): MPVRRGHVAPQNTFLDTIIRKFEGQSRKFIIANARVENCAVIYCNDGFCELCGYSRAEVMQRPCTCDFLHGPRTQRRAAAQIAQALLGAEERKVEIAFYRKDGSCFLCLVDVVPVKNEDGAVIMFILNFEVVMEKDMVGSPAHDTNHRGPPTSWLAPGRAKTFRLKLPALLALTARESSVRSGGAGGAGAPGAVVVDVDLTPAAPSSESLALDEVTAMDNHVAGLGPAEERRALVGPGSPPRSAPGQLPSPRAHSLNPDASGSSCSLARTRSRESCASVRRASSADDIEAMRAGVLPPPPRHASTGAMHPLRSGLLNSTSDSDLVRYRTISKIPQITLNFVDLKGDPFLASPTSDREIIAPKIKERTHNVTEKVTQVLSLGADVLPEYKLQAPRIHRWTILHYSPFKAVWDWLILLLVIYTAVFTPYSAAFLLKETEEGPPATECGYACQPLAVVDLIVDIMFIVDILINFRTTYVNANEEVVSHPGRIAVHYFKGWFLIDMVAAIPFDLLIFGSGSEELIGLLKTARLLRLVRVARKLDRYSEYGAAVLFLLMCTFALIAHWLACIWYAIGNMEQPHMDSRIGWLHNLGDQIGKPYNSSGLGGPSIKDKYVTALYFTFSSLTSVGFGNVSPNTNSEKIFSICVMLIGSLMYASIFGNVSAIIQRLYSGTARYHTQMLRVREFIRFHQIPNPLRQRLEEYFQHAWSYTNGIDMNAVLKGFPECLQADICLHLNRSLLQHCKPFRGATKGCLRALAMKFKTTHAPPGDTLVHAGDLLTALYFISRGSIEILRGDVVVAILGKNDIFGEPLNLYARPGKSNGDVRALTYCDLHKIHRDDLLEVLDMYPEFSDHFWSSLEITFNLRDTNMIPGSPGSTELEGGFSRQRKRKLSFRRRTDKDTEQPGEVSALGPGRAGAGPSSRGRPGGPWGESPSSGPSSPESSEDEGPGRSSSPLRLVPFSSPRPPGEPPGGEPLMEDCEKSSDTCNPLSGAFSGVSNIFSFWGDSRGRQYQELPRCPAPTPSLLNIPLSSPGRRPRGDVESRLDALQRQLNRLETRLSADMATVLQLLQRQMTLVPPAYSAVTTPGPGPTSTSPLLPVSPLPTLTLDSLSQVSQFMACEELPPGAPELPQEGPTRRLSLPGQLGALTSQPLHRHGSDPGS
The mark [1] stands for this setting: CHO-K1 cells stably expressing Kv1.3, patch clamp, current inhibition, read-out: Kv1.3 IC50.

T1 sequence (P22001 whole entry): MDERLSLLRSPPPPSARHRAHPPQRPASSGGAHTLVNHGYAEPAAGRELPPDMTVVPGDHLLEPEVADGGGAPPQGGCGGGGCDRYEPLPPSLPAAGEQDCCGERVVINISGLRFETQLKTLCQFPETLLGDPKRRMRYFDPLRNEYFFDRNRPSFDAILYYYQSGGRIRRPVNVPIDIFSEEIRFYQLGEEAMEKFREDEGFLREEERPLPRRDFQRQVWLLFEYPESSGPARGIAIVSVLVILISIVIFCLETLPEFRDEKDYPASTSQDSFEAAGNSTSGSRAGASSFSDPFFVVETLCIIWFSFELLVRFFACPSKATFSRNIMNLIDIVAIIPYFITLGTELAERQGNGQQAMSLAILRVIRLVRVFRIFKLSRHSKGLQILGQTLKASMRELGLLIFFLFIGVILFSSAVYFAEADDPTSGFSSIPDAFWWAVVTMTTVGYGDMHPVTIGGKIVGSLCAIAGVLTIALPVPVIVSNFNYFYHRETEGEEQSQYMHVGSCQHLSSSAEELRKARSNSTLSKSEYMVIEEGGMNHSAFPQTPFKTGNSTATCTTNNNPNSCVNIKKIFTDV
Experimental for hERG channel: Evaluation of hERG Activities
This assay is used to evaluate the disclosed compounds's inhibition activities against the hERG channel.
CHO-K1 cells stably expressing hERG were grown in Ham's F-12 Medium with glutamine containing 10% heat-inactivated FBS, 1% penicillin/streptomycin, hygromycin (100 μg/ml) and G418 (100 μg/ml). Cells were grown in culture flasks at 37° C. in a 5% CO2-humidified incubator.
The cells were bathed in an extracellular solution containing 140 mM NaCl, 4 mM KCl, 2 mM CaCl2), 1 mM MgCl2, 5 mM Glucose, 10 mM HEPES; pH adjusted to 7.4 with NaOH; 295-305 mOsm. The internal solution contained 50 mM KCl, 10 mM NaCl, 60 mM KF, 20 mM EGTA, 10 mM HEPES; pH adjusted to 7.2 with KOH; 285 mOsm. All compounds were dissolved in DMSO at 30 mM. Compound stock solutions were freshly diluted with external solution to concentrations of 30 nM, 100 nM, 300 nM, 1 μM, 3 μM, 10 μM, 30 μM and 100 μM. The highest content of DMSO (0.3%) was present in 100 μM.
The voltage protocol (see Table B) was designed to simulate voltage changes during a cardiac action potential with a 300 ms depolarization to +20 mV (analogous to the plateau phase of the cardiac action potential), a repolarization for 300 ms to −50 mV (inducing a tail current) and a final step to the holding potential of −80 mV. The pulse frequency was 0.3 Hz. Control (compound-free) and compound pulse trains for each compound concentration applied contained 70 pulses.
Whole-cell current recordings and compound application were enabled by means of an automated patch clamp platform Patchliner (Nanion). EPC 10 patch clamp amplifier (HEKA) along with Patchmaster software (HEKA Elektronik Dr. Schulze GmbH) was used for data acquisition. Data were sampled at 10 kHz without filtering. Increasing compound concentrations were applied consecutively to the same cell without washouts in between.
AUC and PEAK values were obtained with Patchmaster (HEKA Elektronik Dr. Schulze GmbH). To determine IC50 the last single pulse in the pulse train corresponding to a given compound concentration was used. Obtained AUC and PEAK values in the presence of compound were normalized to control values in the absence of compound. Using Origin (OridinLab), IC50 was derived from data fit to Hill equation: Icompound/control=(100−A)/(1+([compound]/IC50)nH)+A, where IC50 is the concentration at which current inhibition is half-maximal, [compound] is the applied compound concentration, A is the fraction of current that is not blocked and nH is the Hill coefficient.

As usually defined, the pIC50 is the IC50 on a negative log10 scale, so that one unit is a factor of ten. Take `NC(=O)C1CC(c2c(O)cc(Cl)c(Cl)c2Cl)CCN1` (stereo not shown) [Compound 61, 4-(2,3,4-trichloro-6-hydroxyphenyl)piperidine-2-carboxamide]: the pIC50 was greater than 6.00 on Kv1.3 potassium channel (setting [1]) and greater than 4.52 on hERG channel.
For `NC[C@H]1C[C@@H](c2c(O)ccc(Cl)c2Cl)CCN1` (relative stereo) [Compound 74, (2R,4S)-rel-2-(aminomethyl)piperidin-4-yl]-3,4-dichlorophenol] the same measures were greater than 6.00 and less than 4.52.
On to `Nc1nnc(C2CC(c3c(O)ccc(Cl)c3Cl)CCN2)o1` [Compound 99, (2R,4S)-rel-2-(2-(5-amino-1,3,4-oxadiazol-2-yl)piperidin-4-yl)-3,4-dichlorophenol], for which the pIC50 is greater than 6.00 at Kv1.3 potassium channel (setting [1]) and less than 4.52 against hERG channel.
On to `CNC(=O)C[C@H]1C[C@@H](c2c(O)ccc(Cl)c2Cl)CCN1` (relative stereo) [Compound 115, 2-[4-(2,3-dichloro-6-hydroxyphenyl)piperidin-2-yl]-N-methylacetamide], for which the negative-log IC50 (pIC50) was greater than 6.00 on Kv1.3 potassium channel (setting [1]) and less than 4.52 against hERG channel.
For `CC1(N)CCN(c2cc(Cl)c(Cl)cc2O)CC1` [Compound 25, 2-(4-amino-4-methylpiperidin-l-yl)-4,5-dichlorophenol] the same measures were greater than 6.00 and greater than 4.52.
Turning to `O=C(NC1CNC1)C1CCNC(c2c(O)ccc(Cl)c2Cl)C1` (stereo not shown) [Compound 126, N-(azetidin-3-yl)-2-(2,3-dichloro-6-hydroxyphenyl)piperidine-4-carboxamide], the values for the pIC50 at Kv1.3 potassium channel (setting [1]) and against hERG channel were greater than 5.00 and less than 4.52, respectively.
For `CNC(=O)C[C@@H]1C[C@H](c2c(O)ccc(Cl)c2Cl)CCN1` (single isomer, unassigned) [Compound 14] the same measures were greater than 6.00 and less than 4.52.
For `NC(=O)NCC1CC(c2c(O)ccc(Cl)c2Cl)CCN1` [Compound 102, (2R,4S)-rel-[4-(2,3-dichloro-6-hydroxyphenyl)piperidin-2-yl]methylurea] the same measures were greater than 6.00 and less than 4.52.
For `Oc1cc(Cl)c(Cl)cc1C1CCNC1` (stereo not shown) [Compound 21, 4,5-dichloro-2-(pyrrolidin-3-yl)phenol] the same measures were greater than 6.00 and greater than 4.52.
As for `NC(=O)[C@H]1C[C@@H](c2c(O)ccc(Cl)c2Cl)CCN1` (single isomer, unassigned) [Compound 70], the pIC50 on Kv1.3 potassium channel (setting [1]) is greater than 6.00; on hERG channel, less than 4.52.
Turning to `OCC1CC(c2cc(Cl)c(Cl)cc2O)CN1` (stereo not shown) [Compound 36, 4,5-dichloro-2-(5-(hydroxymethyl)pyrrolidin-3-yl)phenol], the pIC50 is greater than 5.00 at Kv1.3 potassium channel (setting [1]) and greater than 4.52 against hERG channel.
Regarding `CC(=O)NCC1CC(c2c(O)ccc(Cl)c2Cl)CCN1` (stereo not shown) [Compound 79, N-[[4-(2,3-dichloro-6-hydroxyphenyl)piperidin-2-yl]methyl]acetamide], the pIC50 on Kv1.3 potassium channel (setting [1]) was greater than 6.00; on hERG channel, less than 4.52.
`CC(=O)NC[C@H]1C[C@@H](c2c(O)ccc(Cl)c2Cl)CCN1` (single isomer, unassigned) [Compound 86]: the pIC50 at Kv1.3 potassium channel (setting [1]) was greater than 6.00; against hERG channel, less than 4.52.
For `O=S(=O)(NC[C@H]1C[C@@H](c2c(O)ccc(Cl)c2Cl)CCN1)C1CC1` (relative stereo) [Compound 97, N-(2R,4S)-rel-[[4-(2,3-dichloro-6-hydroxyphenyl)piperidin-2-yl]methyl]cyclopropanesulfonamide], the pIC50 on Kv1.3 potassium channel (setting [1]) was greater than 6.00; against hERG channel, less than 4.52.
For `NC(=O)[C@H]1CNCC[C@H]1c1cc(Cl)c(Cl)cc1O` (single isomer, unassigned) [Compound 42] the same measures were greater than 6.00 and less than 4.52.
For `NC1CCN(c2cc(Cl)c(Cl)cc2O)CC1` [Compound 8, 2-(4-aminopiperidin-1-yl)-4,5-dichlorophenol] the same measures were greater than 6.00 and greater than 4.52.
As to `NC(=O)C[C@H]1C[C@@H](c2c(O)ccc(Cl)c2Cl)CCN1` (relative stereo) [Compound 108, 2-[(2R,4S)-rel-4-(2,3-dichloro-6-hydroxyphenyl)piperidin-2-yl]acetamide], the pIC50 on Kv1.3 potassium channel (setting [1]) is greater than 6.00; against hERG channel, less than 4.52.
For `Oc1ccc2ccccc2c1C1CCNCC1` [Compound 18, 1-(piperidin-4-yl)naphthalen-2-ol] the same measures were greater than 6.00 and greater than 4.52.
Taken in the same sequence, the figures for `Cc1cc(O)c(C2CCNCC2)cc1Cl` [Compound 12, 4-chloro-5-methyl-2-(piperidin-4-yl)phenol] were greater than 5.00 and greater than 4.52.
Regarding `O=C(NCC1CC(c2c(O)ccc(Cl)c2Cl)CCN1)C1CC1` [Compound 106, (2R,4S)-rel-N-[[4-(2,3-dichloro-6-hydroxyphenyl)piperidin-2-yl]methyl]cyclopropane carboxamide], the pIC50 at Kv1.3 potassium channel (setting [1]) was greater than 6.00; against hERG channel it was less than 4.52.
Taken in the same sequence, the figures for `NC(=O)[C@H]1C[C@@H](c2cc(Cl)c(Cl)cc2O)CCN1` (relative stereo) [Compound 85, (2R,4S)-rel-4-(4,5-dichloro-2-hydroxyphenyl)piperidine-2-carboxamide] were greater than 6.00 and less than 4.52.
As for `O=C(CO)N1CCC(c2c(O)cc(Cl)c(Cl)c2Cl)CC1` [Compound 93, 2-hydroxy-1-[4-(2,3,4-trichloro-6-hydroxyphenyl)piperidin-1-yl]ethan-1-one], the pIC50 at Kv1.3 potassium channel (setting [1]) is greater than 6.00; against hERG channel, greater than 4.52.
Take `O=S(=O)(C1CCNC1)N1CCC(c2c(O)cc(Cl)c(Cl)c2Cl)CC1` (stereo not shown) [Compound 95, 3,4,5-trichloro-2-[1-(pyrrolidine-3-sulfonyl)piperidin-4-yl]phenol]: the pIC50 at Kv1.3 potassium channel (setting [1]) was greater than 5.00.
As to `O=C(NC1CNC1)[C@@H]1CC[C@@H](c2c(O)ccc(Cl)c2Cl)N1` (single isomer, unassigned) [Compound 120], the pIC50 at Kv1.3 potassium channel (setting [1]) is greater than 5.00.
Regarding `Oc1cc(Cl)c(Cl)cc1C1CNC1` [Compound 22, 2-(azetidin-3-yl)-4,5-dichlorophenol], the pIC50 at Kv1.3 potassium channel (setting [1]) was greater than 5.00.
Still for that read-out and setting: the same measure for `Oc1ccc(F)c(Cl)c1C1CCNCC1` [Compound 68, 3-chloro-4-fluoro-2-(piperidin-4-yl)phenol]: greater than 5.00; for `OC[C@@H]1C[C@H](c2cc(Cl)c(Cl)cc2O)CCN1` (single isomer, unassigned) [Compound 35]: greater than 5.00; for `OCC1(c2cc(Cl)c(Cl)cc2O)CCNCC1` [Compound 26, 4,5-dichloro-2-[4-(hydroxymethyl)piperidin-4-yl]phenol]: greater than 5.00.
`NC(=O)C1CNC[C@H]1c1cc(Cl)c(Cl)cc1O` (stereo in doubt) [Compound 64, (3R,4R)-rel-4-(4,5-dichloro-2-hydroxyphenyl)pyrrolidine-3-carboxamide]: the pIC50 on Kv1.3 potassium channel (setting [1]) is greater than 5.00.
The same measure, in the same setting: the same measure for `O=C(NC1CNC1)[C@H]1CCC(c2c(O)ccc(Cl)c2Cl)N1` (single isomer, unassigned) [Compound 117]: greater than 4.52; for `Oc1cc(Cl)c(Cl)cc1C1=CCNC1` [Compound 20, 4,5-dichloro-2-(2,5-dihydro-1H-pyrrol-3-yl)phenol]: greater than 5.00.
Same read-out and setting: the same measure for `O=C(O)C1CC(c2c(O)ccc(Cl)c2Cl)CCN1` (stereo not shown) [Compound 84, 4-(2,3-dichloro-6-hydroxyphenyl)piperidine-2-carboxylic acid]: greater than 5.00.
At Kv1.3 potassium channel, `Oc1cc(Cl)c(Cl)cc1[C@H]1C[C@H]2CC[C@@H](C1)N2` (single isomer, unassigned; isomer 2) [Compound 11, 2-[8-azabicyclo[3.2.1]octan-3-yl]-4,5-dichlorophenol isomer 2] had a pIC50 greater than 5.00.
On to `Oc1cc(Cl)c(Cl)cc1C1(O)CCNCC1` (single isomer, unassigned) [Compound 59, 4-(4,5-dichloro-2-hydroxyphenyl)piperidin-4-ol], for which the pIC50 at Kv1.3 potassium channel (setting [1]) is greater than 5.00.
For the compound `NC(=O)[C@H]1CN(c2c(O)cc(Cl)c(Cl)c2Cl)CCN1` [Compound 96, (2R)-4-(2,3,4-trichloro-6-hydroxyphenyl)piperazine-2-carboxamide], the pIC50 at Kv1.3 potassium channel (setting [1]) was greater than 6.00.
The compound `Oc1cc(Cl)c(Cl)cc1C1=CC2CCC(C1)N2` (stereo not shown) [Compound 17, 2-[8-azabicyclo[3.2.1]oct-2-en-3-yl]-4,5-dichlorophenol] had a pIC50 against Kv1.3 potassium channel greater than 5.00.
With `NC(=O)[C@@H]1CNC[C@H]1c1cc(Cl)c(Cl)cc1O` (relative stereo) [Compound 52, (3R,4S)-rel-4-(4,5-dichloro-2-hydroxyphenyl)pyrrolidine-3-carboxamide], on Kv1.3 potassium channel (setting [1]), the pIC50 is greater than 5.00.
Same read-out and setting: the same measure for `Oc1cc(C(F)F)c(Cl)cc1C1CCNCC1` [Compound 41, 4-chloro-5-(difluoromethyl)-2-(piperidin-4-yl)phenol]: greater than 5.00; for `O=C(NC1CNC1)[C@H]1CN[C@H](c2c(O)ccc(Cl)c2Cl)C1` (single isomer, unassigned) [Compound 124]: greater than 6.00.
For the compound `O=C(NC1CNC1)[C@@H]1CC[C@H](c2c(O)ccc(Cl)c2Cl)N1` (single isomer, unassigned) [Compound 119], at Kv1.3 potassium channel (setting [1]), the pIC50 was greater than 5.00.
For `NC(=O)[C@H]1CNCC[C@@H]1c1cc(Cl)c(Cl)cc1O` (relative stereo) [Compound 50, (3R,4S)-rel-4-(4,5-dichloro-2-hydroxyphenyl)piperidine-3-carboxamide], the pIC50 at Kv1.3 potassium channel (setting [1]) is greater than 5.00.
Same read-out and setting: with `NC(=O)[C@@H]1CN(c2c(O)ccc(Cl)c2Cl)CCN1` [Compound 92] the figure was greater than 5.00.
